According to ChEMBL document CHEMBL1201862, “PubChem BioAssay data set” (2004):
Activity calls are given as the source filed them.

Key:
[1] = target: T1, Ubiquitin-conjugating enzyme E2 N (Homo sapiens, UniProt P61088); type: functional;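 further: Dose-response confirmation in a TR-FRET assay detecting UBC13-driven polyubiquitin chain formation, inhibition measured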
T1 sequence (P61088 whole entry): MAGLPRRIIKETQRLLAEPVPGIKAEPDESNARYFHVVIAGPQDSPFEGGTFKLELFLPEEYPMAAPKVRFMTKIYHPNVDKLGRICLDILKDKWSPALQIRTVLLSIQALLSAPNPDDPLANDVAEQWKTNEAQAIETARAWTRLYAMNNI

[2] = target: T2, Calpain-2 catalytic subunit (Sus scrofa, UniProt P43367); test: m-calpain protease blockers, concentration series – biochemical, fluorogenic peptide substrate, dose response (AID 1420); type: functional
T2 sequence (P43367 whole entry): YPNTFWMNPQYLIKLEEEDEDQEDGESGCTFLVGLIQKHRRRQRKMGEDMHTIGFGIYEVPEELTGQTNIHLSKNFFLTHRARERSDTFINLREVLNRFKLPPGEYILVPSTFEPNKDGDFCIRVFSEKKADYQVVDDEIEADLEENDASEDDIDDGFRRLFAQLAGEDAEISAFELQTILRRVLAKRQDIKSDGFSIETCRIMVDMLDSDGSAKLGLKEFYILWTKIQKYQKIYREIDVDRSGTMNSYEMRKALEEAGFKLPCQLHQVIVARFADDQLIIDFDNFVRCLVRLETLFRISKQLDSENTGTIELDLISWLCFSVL

[3] = target: T3, RNA-binding protein pos-1 (Caenorhabditis elegans, UniProt G5EF15); test: disruptors of C. elegans POS-1 RNA interaction – biochemical, fluorescence polarization, dose response (AID 1964);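 further: purified POS-1 fused to maltose binding protein made in E. coli; potency of compounds blocking POS-1 binding to fluorescent RNA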
T3 sequence (G5EF15 whole entry): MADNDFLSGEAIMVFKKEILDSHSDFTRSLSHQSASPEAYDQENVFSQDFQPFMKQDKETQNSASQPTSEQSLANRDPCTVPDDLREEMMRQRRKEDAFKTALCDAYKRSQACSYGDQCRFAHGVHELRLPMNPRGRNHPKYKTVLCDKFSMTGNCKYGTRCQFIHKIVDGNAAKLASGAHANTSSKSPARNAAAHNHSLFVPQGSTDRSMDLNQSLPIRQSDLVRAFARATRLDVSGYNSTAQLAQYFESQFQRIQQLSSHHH

[4] = target: T4, Zinc finger protein mex-5 (Caenorhabditis elegans, UniProt Q9XUB2); test: potency of MEX-5 RNA-binding blockers – biochemical, C. elegans, fluorescence polarization, dose response (AID 1960)
T4 sequence (Q9XUB2 whole entry): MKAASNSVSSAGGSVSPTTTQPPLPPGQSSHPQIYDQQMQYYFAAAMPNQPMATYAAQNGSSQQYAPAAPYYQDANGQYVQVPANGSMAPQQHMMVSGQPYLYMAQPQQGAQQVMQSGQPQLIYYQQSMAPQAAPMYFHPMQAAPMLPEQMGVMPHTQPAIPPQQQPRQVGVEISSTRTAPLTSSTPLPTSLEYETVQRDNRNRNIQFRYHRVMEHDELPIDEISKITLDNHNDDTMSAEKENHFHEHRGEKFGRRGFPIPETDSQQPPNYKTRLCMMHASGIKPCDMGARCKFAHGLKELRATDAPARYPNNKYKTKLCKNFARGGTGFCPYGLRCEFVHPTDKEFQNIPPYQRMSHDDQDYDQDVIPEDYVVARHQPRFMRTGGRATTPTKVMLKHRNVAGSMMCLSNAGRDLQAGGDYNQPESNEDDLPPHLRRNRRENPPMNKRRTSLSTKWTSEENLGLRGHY

[5] = target: T5, Rac GTPase-activating protein 1 (Homo sapiens, UniProt Q9H0H5); test: blockers of MgcRacGAP-driven Rac1 GTP hydrolysis – biochemical, ADP Hunter fluorescence, primary and confirmatory, confirmation (AID 624330); type: functional
T5 sequence (Q9H0H5 whole entry): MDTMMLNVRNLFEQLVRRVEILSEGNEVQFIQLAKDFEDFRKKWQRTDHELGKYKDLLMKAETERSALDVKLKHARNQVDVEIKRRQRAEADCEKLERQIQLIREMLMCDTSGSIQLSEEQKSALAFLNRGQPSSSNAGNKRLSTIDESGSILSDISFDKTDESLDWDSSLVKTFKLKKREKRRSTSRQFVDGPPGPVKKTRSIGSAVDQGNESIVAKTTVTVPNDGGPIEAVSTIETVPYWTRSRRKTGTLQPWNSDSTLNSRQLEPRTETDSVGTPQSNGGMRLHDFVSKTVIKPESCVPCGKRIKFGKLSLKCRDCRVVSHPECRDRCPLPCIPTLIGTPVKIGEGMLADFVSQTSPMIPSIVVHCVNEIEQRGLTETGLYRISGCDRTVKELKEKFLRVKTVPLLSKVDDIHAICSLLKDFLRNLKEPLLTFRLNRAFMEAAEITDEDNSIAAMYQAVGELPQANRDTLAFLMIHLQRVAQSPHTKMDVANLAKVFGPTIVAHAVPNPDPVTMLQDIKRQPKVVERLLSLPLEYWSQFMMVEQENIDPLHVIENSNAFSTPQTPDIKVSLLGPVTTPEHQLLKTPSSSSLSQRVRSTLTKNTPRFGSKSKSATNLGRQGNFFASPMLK

[6] = system: Streptococcus sp. 'group A'; test: Streptococcus pyogenes SK(-)GAS viability under kanamycin – luminescence, BacTiterGlo, confirmation, counter-screen for streptokinase expression inhibitor project, dose response (AID 1900); type: functional, organism-based
[7] = target: T6, Streptokinase A (Streptococcus pyogenes serotype M1, UniProt P10520); test: viability-normalized secreted streptokinase activity reduction – plasminogen activation absorbance, OD405, dose response (AID 1914); type: functional, Streptococcus pyogenes M1 GAS;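 further: secreted streptokinase activity via plasminogen activation per viability signal from cell pellet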
T6 sequence (P10520 whole entry): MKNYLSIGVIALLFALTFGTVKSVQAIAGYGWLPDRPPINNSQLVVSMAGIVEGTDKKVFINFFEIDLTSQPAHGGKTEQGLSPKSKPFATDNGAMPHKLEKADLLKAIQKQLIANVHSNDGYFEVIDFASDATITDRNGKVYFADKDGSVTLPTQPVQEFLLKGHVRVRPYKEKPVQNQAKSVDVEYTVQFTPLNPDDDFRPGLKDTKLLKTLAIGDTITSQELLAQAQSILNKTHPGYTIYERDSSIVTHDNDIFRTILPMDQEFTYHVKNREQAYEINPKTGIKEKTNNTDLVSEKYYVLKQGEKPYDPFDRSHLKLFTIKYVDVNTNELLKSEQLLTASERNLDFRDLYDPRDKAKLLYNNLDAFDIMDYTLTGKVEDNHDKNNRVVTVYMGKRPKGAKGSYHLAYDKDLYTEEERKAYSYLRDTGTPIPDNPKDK

[8] = system: Streptococcus; test: GAS UMAA2166 growth inhibition – luminescence, BacTiterGlo, counter-screen for streptokinase expression inhibitor project, dose response (AID 1915); type: functional, organism-based;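 further: potency for reduction of bacterial viability or growth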
[9] = luciferase reporter signal suppression in cells – H4 neuroglioma cells, luminescence, dose response (AID 1990); type: functional, cell-based
[10] = Luminescence Cell-Based Dose Response HTS to Identify Inhibitors of 5'UTR Stem-Loop Driven Prion Protein mRNA Translation in H4 Neuroglioblastoma Cells. [Related pubchem assays: 1827 (Project Summary), 1813 (Primary HTS)]; type: functional
[11] = alpha-synuclein stem-loop luciferase translation blockers – H4 neuroglioma cells, luminescence, confirmation (AID 1988); type: functional, cell-based
[12] = target: T7, Replicative DNA helicase DnaB (Mycobacterium tuberculosis, UniProt P9WMR3); test: DnaB intein splicing inhibitors, dose response, biochemical, cell-free fluorescence (AID 449749); type: functional
T7 sequence (P9WMR3 whole entry): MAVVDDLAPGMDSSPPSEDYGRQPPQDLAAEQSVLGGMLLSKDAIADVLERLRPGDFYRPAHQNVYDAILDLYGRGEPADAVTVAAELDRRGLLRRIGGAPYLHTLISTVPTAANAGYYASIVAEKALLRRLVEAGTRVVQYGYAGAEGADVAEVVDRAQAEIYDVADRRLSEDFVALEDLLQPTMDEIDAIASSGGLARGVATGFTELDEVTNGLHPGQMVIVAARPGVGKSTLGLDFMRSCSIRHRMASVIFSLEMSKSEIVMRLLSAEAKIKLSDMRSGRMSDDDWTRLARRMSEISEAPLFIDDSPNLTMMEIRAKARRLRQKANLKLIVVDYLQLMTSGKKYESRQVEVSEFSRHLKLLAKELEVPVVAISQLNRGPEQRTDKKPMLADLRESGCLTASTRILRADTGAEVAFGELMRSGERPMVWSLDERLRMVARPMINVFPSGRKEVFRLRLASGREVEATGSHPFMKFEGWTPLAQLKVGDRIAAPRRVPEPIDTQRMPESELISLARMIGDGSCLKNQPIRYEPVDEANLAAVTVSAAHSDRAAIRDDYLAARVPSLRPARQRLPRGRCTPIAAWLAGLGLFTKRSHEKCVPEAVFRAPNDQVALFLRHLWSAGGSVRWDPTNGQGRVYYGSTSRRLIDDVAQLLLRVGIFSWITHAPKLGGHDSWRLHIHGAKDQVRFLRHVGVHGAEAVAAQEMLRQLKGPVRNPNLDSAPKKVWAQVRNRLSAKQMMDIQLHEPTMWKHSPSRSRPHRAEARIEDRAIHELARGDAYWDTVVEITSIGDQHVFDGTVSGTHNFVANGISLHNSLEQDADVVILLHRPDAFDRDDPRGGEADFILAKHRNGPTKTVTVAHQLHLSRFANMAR

[13] = target: T8, Protein RecA (Mycobacterium tuberculosis, UniProt P9WHJ3); test: Fluorescence Cell-Free Homogeneous Dose Retest to Identify Inhibitors of RecA-Intein Splicing Activity. [Related pubchem assays (depositor defined):AID2097, AID2223, AID489010, AID492950]; type: functional
T8 sequence (P9WHJ3 whole entry): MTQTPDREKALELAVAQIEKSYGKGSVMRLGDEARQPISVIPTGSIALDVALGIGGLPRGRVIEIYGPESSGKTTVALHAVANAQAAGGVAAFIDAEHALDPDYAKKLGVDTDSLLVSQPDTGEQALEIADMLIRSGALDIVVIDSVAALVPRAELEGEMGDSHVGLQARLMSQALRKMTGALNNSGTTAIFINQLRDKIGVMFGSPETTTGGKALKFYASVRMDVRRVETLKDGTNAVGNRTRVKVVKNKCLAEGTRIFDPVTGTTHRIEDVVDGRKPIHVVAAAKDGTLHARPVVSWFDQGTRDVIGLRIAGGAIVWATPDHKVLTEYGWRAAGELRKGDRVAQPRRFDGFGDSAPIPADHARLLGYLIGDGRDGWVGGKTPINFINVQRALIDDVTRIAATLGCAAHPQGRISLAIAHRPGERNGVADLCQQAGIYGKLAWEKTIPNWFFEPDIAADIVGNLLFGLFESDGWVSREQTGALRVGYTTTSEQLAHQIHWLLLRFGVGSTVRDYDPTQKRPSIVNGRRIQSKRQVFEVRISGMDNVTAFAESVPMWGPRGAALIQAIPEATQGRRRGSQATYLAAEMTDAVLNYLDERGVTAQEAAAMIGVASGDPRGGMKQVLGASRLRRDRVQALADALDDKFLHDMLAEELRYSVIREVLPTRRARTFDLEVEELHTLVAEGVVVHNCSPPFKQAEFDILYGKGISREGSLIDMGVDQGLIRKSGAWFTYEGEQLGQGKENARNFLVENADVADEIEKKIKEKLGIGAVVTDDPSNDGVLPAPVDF

Compound: COc1ccccc1NC(=O)COC(=O)c1cc(C)nc2ccccc12
- IC50 [1]: > 20 µM (inactive)

Compound: CCOC(=O)C1CCN(c2c([N+](=O)[O-])c(C(Cl)Cl)nn2-c2ccccc2)CC1
- IC50 [2]: 8.97 µM (not active)

Compound: CCN(CC)C(=O)Cn1cc(/C=C2\C(=O)NC(=O)N(c3ccccc3F)C2=O)c2ccccc21
- EC50 [3]: > 300 µM (not active)
- EC50 [4]: > 300 µM (not active)

Compound: Cc1nn2c(nc(N3CCOCC3)c3ccccc32)c1C=C(C#N)C#N
- IC50 [1]: > 20 µM (inactive)

Compound: Cc1cc(O)ccc1NC(=O)c1ccccc1
- IC50 [5]: 69.1 µM (active)

Compound: COc1cccc(/C=C(/C(=O)OCC(=O)NC2CCCC(C)C2C)c2ccccc2)c1 (stereo not drawn)
- EC50 [6]: 6.28 µM (active)
- EC50 [7]: 6.84 µM (active)
- IC50 [2]: 11.6 µM (not active)
- EC50 [8]: 17.3 µM (active)

Compound: N=c1c(S(=O)(=O)c2ccc(Cl)cc2)cc2c(=O)n3ccccc3nc2n1C1CCCCC1
- EC50 [9]: 83.2 µM (active)
- EC50 [3]: 82.7 µM (inconclusive)
- EC50 [10]: 14.1 µM (active)
- EC50 [4]: 125 µM (active)
- EC50 [11]: > 120 µM (not active)

Compound: CCC(=O)Nc1ccc(Cl)c(NC(=S)NC(=O)c2cc3ccccc3o2)c1
- IC50 [2]: 25.7 µM (not active)

Compound: C[C@@H](CN1C2=NC[C@H](Cc3ccccc3)N2C[C@H]1Cc1ccc(O)cc1)NC(=O)CCC1CCCCC1
- IC50 [1]: > 20 µM (inactive)

Compound: CCCCOc1ccc(C(=O)NNC(=O)c2cnccn2)cc1OC
- IC50 [1]: > 20 µM (inactive)

Compound: O=C(CSc1nc2ccccc2c(=O)n1-c1ccccc1)N1CCc2ccccc21
- IC50 [2]: 16.7 µM (not active)

Compound: COc1cccc(CNC(=O)CN=C(S)N(Cc2ccccc2)Cc2ccccc2F)c1
- IC50 [2]: 6.84 µM (not active)

Compound: CC(=O)N1CCN(c2ccc(NCc3cccs3)cc2)CC1
- IC50 [5]: 14.1 µM (active)

Compound: Cc1cc(C)n(CCC(=O)N/N=C/c2ccc(O)cc2)n1
- IC50 [5]: 77.2 µM (active)

Compound: CC1CC=C2C(C#N)=C(N)C(C#N)(C#N)C(c3cccs3)C2C1 (stereo not drawn)
- EC50 [3]: 21.7 µM (active)
- EC50 [4]: 14.9 µM (active)

Compound: Cc1ccc(Cl)cc1N(Cc1ccc(C(=O)NCc2cccnc2)cc1)S(=O)(=O)c1ccccc1
- IC50 [2]: 7.55 µM (not active)

Compound: O=C(Nc1ccc2c(c1)OCO2)c1c(F)c(F)c(F)c(F)c1F
- IC50 [2]: > 50 µM (not active)

Compound: Cc1ccc(-c2nn(-c3ccccc3)cc2CNCc2ccccc2)cc1
- IC50 [2]: > 50 µM (not active)

Compound: Cc1ccc2cc(C#N)c(SCC(=O)NNC(=O)Cc3ccccc3)nc2c1
- IC50 [2]: 23.7 µM (not active)

Compound: Nc1ccc2nc(S)sc2c1
- IC50 [5]: 30.4 µM (active)

Compound: CCOc1cc(C(c2c(C)[nH][nH]c2=O)c2c(C)[nH][nH]c2=O)cc([N+](=O)[O-])c1O
- EC50 [3]: 16.3 µM (active)
- EC50 [4]: 2.07 µM (active)
- AC50 [12]: 0.299 µM (active)
- EC50 [13]: 0.219 µM (active)
